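Assay format: 96-well plates, 48-hour exposure. GI50 = concentration required for 50% inhibition of growth. At the TGI there is no net growth.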
What was measured:
Test in all cases: DTP human tumour cell line panel, 48 h
SW-620 colon = test system: SW-620 colon
OVCAR-8 ovarian = test system: OVCAR-8 ovarian
SR leukemia = test system: SR leukemia
UACC-62 melanoma = test system: UACC-62 melanoma
NCI-H23 lung = test system: NCI-H23 lung
NCI-H522 lung = test system: NCI-H522 lung
SF-268 CNS = test system: SF-268 CNS
MDA-MB-435 = test system: MDA-MB-435
HOP-92 NSCLC = test system: HOP-92 NSCLC
SK-OV-3 ovarian = test system: SK-OV-3 ovarian
COLO 205 colon = test system: COLO 205 colon
SK-MEL-28 melanoma = test system: SK-MEL-28 melanoma
KM12 colon = test system: KM12 colon
U251 CNS = test system: U251 CNS
HOP-62 NSCLC = test system: HOP-62 NSCLC
PC-3 prostate = test system: PC-3 prostate
HS 578T breast = test system: HS 578T breast
TK-10 renal = test system: TK-10 renal
SN12C renal = test system: SN12C renal
NCI-H460 lung = test system: NCI-H460 lung
SK-MEL-5 melanoma = test system: SK-MEL-5 melanoma
A549 NSCLC = test system: A549 NSCLC
RPMI-8226 leukemia = test system: RPMI-8226 leukemia
BT-549 breast = test system: BT-549 breast
MDA-MB-231 breast = test system: MDA-MB-231 breast
786-0 renal = test system: 786-0 renal
SF-295 CNS = test system: SF-295 CNS
OVCAR-5 ovarian = test system: OVCAR-5 ovarian
OVCAR-3 ovarian = test system: OVCAR-3 ovarian
ACHN renal = test system: ACHN renal
HCT-116 colon = test system: HCT-116 colon
SNB-75 CNS = test system: SNB-75 CNS
T-47D breast = test system: T-47D breast
UACC-257 melanoma = test system: UACC-257 melanoma
LOX IMVI melanoma = test system: LOX IMVI melanoma
DU-145 prostate = test system: DU-145 prostate
SF-539 CNS = test system: SF-539 CNS
RXF 393 renal = test system: RXF 393 renal
UO-31 renal = test system: UO-31 renal
SK-MEL-2 melanoma = test system: SK-MEL-2 melanoma
MOLT-4 leukemia = test system: MOLT-4 leukemia
IGROV1 ovarian = test system: IGROV1 ovarian
HT29 colon = test system: HT29 colon
MALME-3M melanoma = test system: MALME-3M melanoma
HCT-15 colon = test system: HCT-15 colon
EKVX NSCLC = test system: EKVX NSCLC
HCC-2998 colon = test system: HCC-2998 colon
MCF7 breast = test system: MCF7 breast
NCI/ADR-RES ovarian = test system: NCI/ADR-RES ovarian
A498 renal = test system: A498 renal
OVCAR-4 ovarian = test system: OVCAR-4 ovarian
CAKI-1 renal = test system: CAKI-1 renal

In the case of `COc1ccc(C(=O)OC2C(OC3C(O)COC(O[C@H]4C[C@H]5[C@@H]6CC=C7C[C@@H](O)CC[C@]7(C)[C@H]6CC[C@]5(C)[C@H]4[C@H](C)C(=O)CCC(C)C)C3OC(C)=O)OCC(O)C2O)cc1` (some centres undefined), the GI50 (SW-620 colon) is reported as under 3 nM, the TGI (SW-620 colon) is reported as 304 nM and the GI50 (OVCAR-8 ovarian) is reported as 1020 nM. It also gave a TGI (OVCAR-8 ovarian) of 30000 nM, a GI50 (SR leukemia) of under 3 nM and a TGI (SR leukemia) of 682 nM. For the same compound, the GI50 (UACC-62 melanoma) was under 3 nM, the TGI (UACC-62 melanoma) was under 3 nM and the GI50 (NCI-H23 lung) was 14.4 nM. For the same compound, the TGI (NCI-H23 lung) was 3370 nM, the GI50 (NCI-H522 lung) was under 3 nM and the TGI (NCI-H522 lung) was 17.3 nM. The GI50 (SF-268 CNS) was under 3 nM, the TGI (SF-268 CNS) was 1460 nM and the GI50 (MDA-MB-435) was under 3 nM. For the same compound, the TGI (MDA-MB-435) was 43.5 nM, the GI50 (HOP-92 NSCLC) was 6.36 nM and the TGI (HOP-92 NSCLC) was 1430 nM. For the same compound, the GI50 (SK-OV-3 ovarian) was under 3 nM, the TGI (SK-OV-3 ovarian) was 191 nM and the GI50 (COLO 205 colon) was under 3 nM. It also gave a TGI (COLO 205 colon) of 19.4 nM, a GI50 (SK-MEL-28 melanoma) of under 3 nM and a TGI (SK-MEL-28 melanoma) of under 3 nM. The GI50 (KM12 colon) was 3.99 nM, the TGI (KM12 colon) was 4480 nM and the GI50 (U251 CNS) was under 3 nM. It also gave a TGI (U251 CNS) of 3860 nM, a GI50 (HOP-62 NSCLC) of under 3 nM and a TGI (HOP-62 NSCLC) of 592 nM. It also gave a GI50 (PC-3 prostate) of under 3 nM, a TGI (PC-3 prostate) of 311 nM and a GI50 (HS 578T breast) of under 3 nM. It also gave a TGI (HS 578T breast) of 21.5 nM, a GI50 (TK-10 renal) of 14.8 nM and a TGI (TK-10 renal) of 6600 nM. It also gave a GI50 (SN12C renal) of 1110 nM, a TGI (SN12C renal) of 28300 nM and a GI50 (NCI-H460 lung) of under 3 nM. For the same compound, the TGI (NCI-H460 lung) was 306 nM, the GI50 (SK-MEL-5 melanoma) was under 3 nM and the TGI (SK-MEL-5 melanoma) was 20.4 nM. The GI50 (A549 NSCLC) was under 3 nM, the TGI (A549 NSCLC) was 9950 nM and the GI50 (RPMI-8226 leukemia) was under 3 nM. For the same compound, the TGI (RPMI-8226 leukemia) was under 3 nM, the GI50 (BT-549 breast) was under 3 nM and the TGI (BT-549 breast) was 2180 nM. It also gave a GI50 (MDA-MB-231 breast) of 31.3 nM, a TGI (MDA-MB-231 breast) of 4550 nM and a GI50 (786-0 renal) of under 3 nM. For the same compound, the TGI (786-0 renal) was 441 nM, the GI50 (SF-295 CNS) was under 3 nM and the TGI (SF-295 CNS) was under 3 nM. It also gave a GI50 (OVCAR-5 ovarian) of 6.01 nM, a TGI (OVCAR-5 ovarian) of 1630 nM and a GI50 (OVCAR-3 ovarian) of 53.3 nM. For the same compound, the TGI (OVCAR-3 ovarian) was 6880 nM, the GI50 (ACHN renal) was 7.47 nM and the TGI (ACHN renal) was 9220 nM. It also gave a GI50 (HCT-116 colon) of under 3 nM, a TGI (HCT-116 colon) of 3150 nM and a GI50 (SNB-75 CNS) of under 3 nM. It also gave a TGI (SNB-75 CNS) of 4360 nM, a GI50 (T-47D breast) of under 3 nM and a TGI (T-47D breast) of 1130 nM. It also gave a GI50 (UACC-257 melanoma) of under 3 nM, a TGI (UACC-257 melanoma) of 7.2 nM and a GI50 (LOX IMVI melanoma) of under 3 nM. It also gave a TGI (LOX IMVI melanoma) of 4.83 nM, a GI50 (DU-145 prostate) of under 3 nM and a TGI (DU-145 prostate) of 24300 nM. It also gave a GI50 (SF-539 CNS) of under 3 nM, a TGI (SF-539 CNS) of under 3 nM and a GI50 (RXF 393 renal) of under 3 nM. It also gave a TGI (RXF 393 renal) of under 3 nM, a GI50 (UO-31 renal) of under 3 nM and a TGI (UO-31 renal) of 5.6 nM. It also gave a GI50 (SK-MEL-2 melanoma) of under 3 nM, a TGI (SK-MEL-2 melanoma) of 10.1 nM and a GI50 (MOLT-4 leukemia) of under 3 nM. It also gave a TGI (MOLT-4 leukemia) of under 3 nM, a GI50 (IGROV1 ovarian) of under 3 nM and a TGI (IGROV1 ovarian) of 8790 nM. The GI50 (HT29 colon) was under 3 nM, the TGI (HT29 colon) was 5910 nM and the GI50 (MALME-3M melanoma) was under 3 nM. For the same compound, the TGI (MALME-3M melanoma) was 129 nM, the GI50 (HCT-15 colon) was 23 nM and the TGI (HCT-15 colon) was 628 nM. The GI50 (EKVX NSCLC) was under 3 nM, the TGI (EKVX NSCLC) was 2400 nM and the GI50 (HCC-2998 colon) was 216 nM. The TGI (HCC-2998 colon) was 12700 nM, the GI50 (MCF7 breast) was under 3 nM and the TGI (MCF7 breast) was 532 nM. The GI50 (NCI/ADR-RES ovarian) was 7490 nM, the TGI (NCI/ADR-RES ovarian) was 30000 nM and the GI50 (A498 renal) was under 3 nM. The TGI (A498 renal) was under 3 nM, the GI50 (OVCAR-4 ovarian) was 8.92 nM and the TGI (OVCAR-4 ovarian) was 19600 nM. The GI50 (CAKI-1 renal) was under 3 nM and the TGI (CAKI-1 renal) was 349 nM.

From PubChem BioAssay (NCI)
